These results are taken from PubChem BioAssay AID248 (DTP/NCI, 2004).

The subject of this assay is L1210 leukemia ip in BDF1 mice, survival T/C. In words: NCI In Vivo Anticancer Drug Screen. Data for tumor model L1210 Leukemia (intraperitoneal) in B6D2F1 (BDF1) mice. The conditions noted are these: endpoint: mean survival time, higher = longer survival. An outline of the steps: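 Tumor cells were implanted, animals were treated, and survival was followed. The result divides the treated measurement by the vehicle-control measurement.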

The mark [1] stands for this setting: dose: 100.0 mg/kg/injection, schedule: Q01DX009 (ip), vehicle: Klucel (hydroxypropylcellulose) (HPC).
The mark [2] stands for this setting: dose: 200.0 mg/kg/injection, schedule: Q01DX009 (ip), vehicle: Klucel (hydroxypropylcellulose) (HPC).
[3] abbreviates: dose: 400.0 mg/kg/injection, schedule: Q01DX009 (ip), vehicle: Klucel (hydroxypropylcellulose) (HPC).
Where [4] appears, read: dose: 100.0 mg/kg/injection, schedule: Q01DX001 (ip), vehicle: saline.
[5] abbreviates: dose: 200.0 mg/kg/injection, schedule: Q01DX001 (ip), vehicle: saline.
The mark [6] stands for this setting: dose: 100.0 mg/kg/injection, schedule: Q01DX009 (ip), vehicle: saline.
Where [7] appears, read: dose: 100.0 mg/kg/injection, schedule: Q04DX003 (ip), vehicle: saline.
The mark [8] stands for this setting: dose: 200.0 mg/kg/injection, schedule: Q01DX009 (ip), vehicle: saline.
The mark [9] stands for this setting: dose: 200.0 mg/kg/injection, schedule: Q04DX003 (ip), vehicle: saline.
Setting [10] is: dose: 400.0 mg/kg/injection, schedule: Q04DX003 (ip), vehicle: saline.
Where [11] appears, read: dose: 400.0 mg/kg/injection, schedule: Q01DX001 (ip), vehicle: saline.
[12] abbreviates: dose: 50.0 mg/kg/injection, schedule: Q01DX009 (ip), vehicle: saline.
The mark [13] stands for this setting: dose: 50.0 mg/kg/injection, schedule: Q04DX003 (ip), vehicle: saline.

Where “and” joins values, the source holds several entries; their conditions need not be identical. Identical values can stand only once. Toxic doses and inconclusive results are not listed. Numbered stars: 1 amine (or outer) side, 2 acyl side, 3 side chain; on linkers, the order of the positions; unused ones are H or OH. Bridge positions count the residues as written; N and C are the ends. Square brackets hold non-standard residues; d marks the D form. Peptide text beside a SMILES is read from it. I, II: the chains in the order shown. Actinocin(9to1) = Cc1c2oc3c(C)ccc(C(=O)[*:1])c3nc-2c(C(=O)[*:2])c(N)c1=O; X4 = O=C(C1CC(Cl)CN1[*:1])[*:2]; NMeV = CN[CH](C(=O)O)C(C)C; Sar = CNCC(=O)O

For the molecule `C=C[C@H]1CN2CC[C@H]1C[C@@H]2[C@@H](O)c1ccnc2ccccc12`, the T/C reads like this: under setting [1], 101 % of control; (dose: 100.0 mg/kg/injection, schedule: Q04DX002 (ip), vehicle: Klucel (hydroxypropylcellulose) (HPC)) 103 % of control; under setting [2], 93 % of control; (dose: 200.0 mg/kg/injection, schedule: Q04DX002 (ip), vehicle: Klucel (hydroxypropylcellulose) (HPC)) 103 % of control; under setting [3], 93 % of control; (dose: 400.0 mg/kg/injection, schedule: Q04DX002 (ip), vehicle: Klucel (hydroxypropylcellulose) (HPC)) 96 % of control.
`COc1ccc2c3c1OC1C(O)CCC4C(C2)N(C)CCC341` (stereo not given): the T/C was 92 % of control (dose: 75.0 mg/kg/injection, schedule: Q01DX001 (ip), vehicle: saline); 102 % of control (dose: 100.0 mg/kg/injection, schedule: Q01DX001 (ip), vehicle: saline with Tween-80); 94 % of control (dose: 150.0 mg/kg/injection, schedule: Q01DX001 (ip), vehicle: saline); 102 % of control (dose: 200.0 mg/kg/injection, schedule: Q01DX001 (ip), vehicle: saline with Tween-80); 101 % of control (dose: 300.0 mg/kg/injection, schedule: Q01DX001 (ip), vehicle: saline).
Take `O=NN(CCI)C(=O)NCCI`: the T/C by setting is: (dose: 18.75 mg/kg/injection, schedule: Q01DX001 (ip), vehicle: carboxymethylcellulose (CMC)) 96 % of control; (dose: 37.5 mg/kg/injection, schedule: Q01DX001 (ip), vehicle: carboxymethylcellulose (CMC)) 98 % of control; (dose: 50.0 mg/kg/injection, schedule: Q01DX001 (ip), vehicle: carboxymethylcellulose (CMC)) 96 % of control; (dose: 75.0 mg/kg/injection, schedule: Q01DX001 (ip), vehicle: carboxymethylcellulose (CMC)) 100 % of control; under setting [4], 103 % of control; under setting [5], 110 % of control.
With `O=C1CN(Br)C(=O)N1Br`, the T/C under setting [6] is 105 % of control; the T/C under setting [7] was 98 % of control; the T/C under setting [8] was 107 % of control; the T/C under setting [9] is 105 % of control; the T/C under setting [10] was 100 % of control.
Consider `O=C(O)C1CCCCN1[N+](=O)[O-]` (stereo not given), for which the T/C reads like this: under setting [4], 96 % of control; under setting [5], 100 % of control; under setting [11], 100 % of control.
Consider `CCN(CC)C(=S)[S][Sn]([c]1ccccc1)([c]1ccccc1)[c]1ccccc1`, for which the T/C runs as follows: (dose: 100.0 mg/kg/injection, schedule: Q01DX001 (ip), vehicle: steriod suspending solution) 109 % of control; (dose: 200.0 mg/kg/injection, schedule: Q01DX001 (ip), vehicle: steriod suspending solution) 98 % of control; (dose: 400.0 mg/kg/injection, schedule: Q01DX001 (ip), vehicle: steriod suspending solution) 98 % of control.
In the case of `Cc1ccc(Oc2ccc([N+](=O)[O-])cc2[N+](=O)[O-])cc1C`, the T/C was 90 % of control (dose: 222.0 mg/kg/injection, schedule: Q01DX Z (ip), vehicle: methylcellulose (MC)); 92 % of control (dose: 333.0 mg/kg/injection, schedule: Q01DX Z (ip), vehicle: methylcellulose (MC)); 92 % of control (dose: 500.0 mg/kg/injection, schedule: Q01DX Z (ip), vehicle: methylcellulose (MC)).
On to `COC1OC(CI)C(O)C(O)C1O` (stereo not given), for which the T/C by setting is: under setting [4], 109 % of control; under setting [5], 109 % of control; under setting [11], 120 % of control.
`CN(C)CCOC(=O)COc1ccc(Cl)cc1`: the T/C is, setting by setting: (dose: 25.0 mg/kg/injection, schedule: Q01DX009 (ip), vehicle: saline) 96 % of control; (dose: 25.0 mg/kg/injection, schedule: Q04DX003 (ip), vehicle: saline) 93 % of control; under setting [12], 100 % of control; under setting [13], 98 % of control; under setting [6], 97 % of control; under setting [7], 90 % of control. Moreover, the T/C runs as follows: under setting [8], 96 % of control; under setting [9], 114 % of control; (dose: 400.0 mg/kg/injection, schedule: Q01DX009 (ip), vehicle: saline) 96 % of control; under setting [10], 101 % of control.
On to `Cc1c2oc3c(C)ccc(C(=O)NC4C(=O)NC(C(C)C)C(=O)N5CC(Cl)CC5C(=O)N(C)CC(=O)N(C)C(C(C)C)C(=O)OC4C)c3nc-2c(C(=O)NC2C(=O)NC(C(C)C)C(=O)N3CC(Cl)CC3C(=O)N(C)CC(=O)N(C)C(C(C)C)C(=O)OC2C)c(N)c1=O` (stereo not given) (I: TV[X4][Sar][NMeV] / II: TV[X4][Sar][NMeV]; ester I:1-I:C, II:1-II:C; linker I:N-II:N via Actinocin(9to1); configuration not given here), for which the T/C (dose: 200.0 micrograms/kg/injection, schedule: Q01DX009 (ip), vehicle: saline + alcohol) is 117 % of control; the T/C (dose: 300.0 micrograms/kg/injection, schedule: Q01DX009 (ip), vehicle: saline + alcohol) is 123 % of control; the T/C (dose: 600.0 micrograms/kg/injection, schedule: Q01DX009 (ip), vehicle: saline + alcohol) was 124 % of control; the T/C (dose: 800.0 micrograms/kg/injection, schedule: Q01DX009 (ip), vehicle: saline + alcohol) was 156 % of control; the T/C (dose: 800.0 micrograms/kg/injection, schedule: Q04DX003 (ip), vehicle: saline + alcohol) is 122 % of control; the T/C (dose: 4800.0 micrograms/kg/injection, schedule: Q04DX003 (ip), vehicle: saline + alcohol) is 121 % of control.
As for `COc1cccc(NC(=O)NCc2ccco2)c1`, the T/C was 106 % of control under setting [1], 108 % of control under setting [2] and 103 % of control under setting [3].
`CNC(=O)NS(=O)(=O)c1ccc([N+](=O)[O-])cc1`: the T/C runs as follows: (dose: 100.0 mg/kg/injection, schedule: Q01DX001 (ip), vehicle: carboxymethylcellulose (CMC)) 95 % of control; (dose: 200.0 mg/kg/injection, schedule: Q01DX001 (ip), vehicle: carboxymethylcellulose (CMC)) 91 % of control; (dose: 400.0 mg/kg/injection, schedule: Q01DX001 (ip), vehicle: carboxymethylcellulose (CMC)) 92 % of control.
For the molecule `C[n+]1ccc(C=O)cc1`, the T/C is 102 % of control (dose: 50.0 mg/kg/injection, schedule: Q01DX001 (ip), vehicle: saline); 104 % of control and 109 % of control under setting [12]; 103 % of control under setting [13]; 105 % of control under setting [4]; 102 % of control and 117 % of control under setting [6]; 94 % of control and 107 % of control (dose: 100.0 mg/kg/injection, schedule: Q04DX002 (ip), vehicle: saline). The T/C is, setting by setting: under setting [7], 101 % of control; under setting [5], 105 % of control; under setting [8], 106 % of control and 120 % of control; (dose: 200.0 mg/kg/injection, schedule: Q04DX002 (ip), vehicle: saline) 102 % of control and 104 % of control; under setting [9], 94 % of control; (dose: 400.0 mg/kg/injection, schedule: Q04DX002 (ip), vehicle: saline) 98 % of control and 100 % of control.
For the molecule `N#C/C(=C\C1CCC(Cl)C(Cl)C1)C1CCC([N+](=O)[O-])CC1` (stereo not given), the T/C is, setting by setting: (dose: 100.0 mg/kg/injection, schedule: Q04DX002 (ip), vehicle: saline with Tween-80) 91 % of control; (dose: 400.0 mg/kg/injection, schedule: Q04DX002 (ip), vehicle: saline with Tween-80) 91 % of control.
